Assays:
[1] = Caco-2 permeability assay (CacoReady kit); assay type: in vitro ADME; details: human, Caco-2, Caco-2 barrier, CacoReady kit; above 1×10^−6 cm/s classified as permeable
How it was run: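 Apparent permeability coefficients (Papp) were measured across Caco-2 cell barriers using a ready-to-use kit run per the supplier's protocol. Values serve as a predictor of oral/intestinal bioavailability.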

[2] = logD by shake flask method (octanol / PBS pH 7.4, HPLC); assay type: physicochemical; details: octanol / PBS pH 7.4, shake flask
How it was run: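 Shake-flask partition of compound between octanol and phosphate-buffered saline at pH 7.4, with each phase quantified by HPLC to give LogD.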

[3] = target: T1, recombinant human transglutaminase 2 (Homo sapiens, UniProt P21980); assay: Transglutaminase assay (DCC-assay): incorporation of dansylcadaverine into dimethylcasein; assay type: biochemical; details: recombinant human TG2 10 nM; dansylcadaverine incorporation into dimethylcasein; read-out: IC50 TG2
T1 construct: purchased Zedira T022
T1 sequence (P21980 1-687): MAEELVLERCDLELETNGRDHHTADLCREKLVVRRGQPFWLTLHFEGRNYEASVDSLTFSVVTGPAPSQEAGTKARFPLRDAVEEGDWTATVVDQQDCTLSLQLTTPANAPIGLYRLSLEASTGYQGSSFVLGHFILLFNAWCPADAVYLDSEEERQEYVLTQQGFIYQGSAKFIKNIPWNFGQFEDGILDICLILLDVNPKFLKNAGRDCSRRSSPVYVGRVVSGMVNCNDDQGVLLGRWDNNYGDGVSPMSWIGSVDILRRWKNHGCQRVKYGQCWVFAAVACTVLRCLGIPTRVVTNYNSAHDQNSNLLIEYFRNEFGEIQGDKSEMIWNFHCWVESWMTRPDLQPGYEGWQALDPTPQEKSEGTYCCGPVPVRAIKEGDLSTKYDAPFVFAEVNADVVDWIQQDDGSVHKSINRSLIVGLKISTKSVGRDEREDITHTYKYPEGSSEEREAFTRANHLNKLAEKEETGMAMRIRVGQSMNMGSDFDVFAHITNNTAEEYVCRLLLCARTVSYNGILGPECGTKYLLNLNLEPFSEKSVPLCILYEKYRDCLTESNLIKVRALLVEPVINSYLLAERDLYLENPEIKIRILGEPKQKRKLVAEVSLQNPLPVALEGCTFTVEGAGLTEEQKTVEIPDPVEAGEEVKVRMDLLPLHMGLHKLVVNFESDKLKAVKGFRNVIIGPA
How it was run: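 Recombinant human TG2 (10 nM final) incorporates dansylcadaverine into N,N-dimethylcasein. Reaction mix: 50 mM Tris-HCl, 10 mM CaCl2, 10 mM glutathione, 2.5% glycerol, 16.7 µM dansylcadaverine, 4 µM dimethylcasein, 200 mM NaCl, pH 8.0. Fluorescence (ex 330/em 500 nm) was followed 30 min at 37 °C; the 20–30 min slope, expressed as % of 2% DMSO control, gave IC50.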

Row | Papp [1] | logD [2] | IC50 [3] | SMILES
1 | < 1 ×10⁻⁶ cm/s | < 1 | 400 to 2500 nM | CNC(=O)C(=O)CC[C@H](NC(=O)c1nc[nH]n1)C(=O)Nc1cccn(CC(=O)NC2C3CC4CC(C3)CC2C4)c1=O (stereo partly drawn) [II-134, (S)-N1-(1-(2-(2-adamantylamino)-2-oxoethyl)-2-oxo-1,2-dihydropyridin-3-yl)-N6-methyl-5-oxo-2-(1H-1,2,4-triazole-3-carboxamido)hexanediamide]
2 | 1 to 10 ×10⁻⁶ cm/s | < 1 | 40 to 400 nM | CNC(=O)C(=O)CC[C@H](NC(=O)c1ncn(C)n1)C(=O)Nc1cccn(CC(=O)NC2C3CC4CC(C3)CC2C4)c1=O (stereo partly drawn) [II-135, (S)-N1-(1-(2-(2-adamantylamino)-2-oxoethyl)-2-oxo-1,2-dihydropyridin-3-yl)-N6-methyl-2-(1-methyl-1H-1,2,4-triazole-3-carboxamido)-5-oxohexanediamide]
3 | 1 to 10 ×10⁻⁶ cm/s | 1 to 3 | 40 to 400 nM | CNC(=O)C(=O)CC[C@H](NC(=O)c1coc2ccccc12)C(=O)Nc1cccn(CC(=O)NC2C3CC4CC(C3)CC2C4)c1=O (stereo partly drawn) [II-136, (S)-2-(benzofuran-3-carboxamido)-N1-(1-(2-(2-adamantylamino)-2-oxoethyl)-2-oxo-1,2-dihydropyridin-3-yl)-N6-methyl-5-oxohexanediamide]
4 | 1 to 10 ×10⁻⁶ cm/s | 3 to 5 | 40 to 400 nM | CNC(=O)C(=O)CC[C@H](NC(=O)c1csc2ccccc12)C(=O)Nc1cccn(CC(=O)NC2C3CC4CC(C3)CC2C4)c1=O (stereo partly drawn) [II-137, (S)-2-(benzo[b]thiophene-3-carboxamido)-N1-(1-(2-(2-adamantylamino)-2-oxoethyl)-2-oxo-1,2-dihydropyridin-3-yl)-N6-methyl-5-oxohexanediamide]
5 | < 1 ×10⁻⁶ cm/s | < 1 | 400 to 2500 nM | CNC(=O)C(=O)CC[C@H](NC(=O)c1ccn(C)n1)C(=O)Nc1cccn(CC(=O)NC2C3CC4CC(C3)CC2C4)c1=O (stereo partly drawn) [II-138, (S)-N1-(1-(2-(2-adamantylamino)-2-oxoethyl)-2-oxo-1,2-dihydropyridin-3-yl)-N6-methyl-2-(1-methyl-1H-pyrazole-3-carboxamido)-5-oxohexanediamide]
6 | < 1 ×10⁻⁶ cm/s | < 1 | 400 to 2500 nM | CNC(=O)C(=O)CC[C@H](NC(=O)c1cnn(C)c1)C(=O)Nc1cccn(CC(=O)NC2C3CC4CC(C3)CC2C4)c1=O (stereo partly drawn) [II-139, (S)-N1-(1-(2-(2-adamantylamino)-2-oxoethyl)-2-oxo-1,2-dihydropyridin-3-yl)-N6-methyl-2-(1-methyl-1H-pyrazole-4-carboxamido)-5-oxohexanediamide]
7 | < 1 ×10⁻⁶ cm/s | < 1 | 40 to 400 nM | CNC(=O)C(=O)CC[C@H](NC(=O)c1ccnn1C)C(=O)Nc1cccn(CC(=O)NC2C3CC4CC(C3)CC2C4)c1=O (stereo partly drawn) [II-140, (S)-N1-(1-(2-(2-adamantylamino)-2-oxoethyl)-2-oxo-1,2-dihydropyridin-3-yl)-N6-methyl-2-(1-methyl-1H-pyrazole-5-carboxamido)-5-oxohexanediamide]
8 | < 1 ×10⁻⁶ cm/s | < 1 | 40 to 400 nM | CNC(=O)C(=O)CC[C@H](NC(=O)c1snnc1C)C(=O)Nc1cccn(CC(=O)NC2C3CC4CC(C3)CC2C4)c1=O (stereo partly drawn) [II-141, (S)-N1-(1-(2-(2-adamantylamino)-2-oxoethyl)-2-oxo-1,2-dihydropyridin-3-yl)-N6-methyl-2-(4-methyl-1,2,3-thiadiazole-5-carboxamido)-5-oxohexanediamide]
9 | < 1 ×10⁻⁶ cm/s | 1 to 3 | 40 to 400 nM | CNC(=O)C(=O)CC[C@H](NC(=O)c1cnsn1)C(=O)Nc1cccn(CC(=O)NC2C3CC4CC(C3)CC2C4)c1=O (stereo partly drawn) [II-142, (S)-N1-(1-(2-(2-adamantylamino)-2-oxoethyl)-2-oxo-1,2-dihydropyridin-3-yl)-N6-methyl-5-oxo-2-(1,2,5-thiadiazole-3-carboxamido)hexanediamide]
10 | < 1 ×10⁻⁶ cm/s | < 1 | 400 to 2500 nM | CNC(=O)C(=O)CC[C@H](NC(=O)c1c(I)cnn1C)C(=O)Nc1cccn(CC(=O)NC2C3CC4CC(C3)CC2C4)c1=O (stereo partly drawn) [II-143, (S)-2-(4-iodo-1-methyl-1H-pyrazole-5-carboxamido)-N1-(1-(2-(2-adamantylamino)-2-oxoethyl)-2-oxo-1,2-dihydropyridin-3-yl)-N6-methyl-5-oxohexanediamide]
11 | < 1 ×10⁻⁶ cm/s | < 1 | 400 to 2500 nM | Cn1nccc1C(=O)N[C@@H](CCC(=O)C(N)=O)C(=O)Nc1cccn(CC(=O)NC2C3CC4CC(C3)CC2C4)c1=O (stereo partly drawn) [II-144, (S)-N1-(1-(2-(2-adamantylamino)-2-oxoethyl)-2-oxo-1,2-dihydropyridin-3-yl)-2-(1-methyl-1H-pyrazole-5-carboxamido)-5-oxohexanediamide]
12 | < 1 ×10⁻⁶ cm/s | < 1 | 40 to 400 nM | Cc1nnsc1C(=O)N[C@@H](CCC(=O)C(N)=O)C(=O)Nc1cccn(CC(=O)NC2C3CC4CC(C3)CC2C4)c1=O (stereo partly drawn) [II-145, (S)-N1-(1-(2-(2-adamantylamino)-2-oxoethyl)-2-oxo-1,2-dihydropyridin-3-yl)-2-(4-methyl-1,2,3-thiadiazole-5-carboxamido)-5-oxohexanediamide]
13 | 1 to 10 ×10⁻⁶ cm/s | < 1 | < 40 nM | NC(=O)C(=O)CC[C@H](NC(=O)c1cc2ccccc2o1)C(=O)Nc1cccn(CC(=O)N[C@@H]2C[C@H]3CC[C@@H]2C3)c1=O [II-146, (S)-2-(benzofuran-2-carboxamido)-N1-(1-(2-((1R,2R,4S)-bicyclo[2.2.1]heptan-2-ylamino)-2-oxoethyl)-2-oxo-1,2-dihydropyridin-3-yl)-5-oxohexanediamide]
14 | 1 to 10 ×10⁻⁶ cm/s | < 1 | < 40 nM | Cc1c(C(=O)N[C@@H](CCC(=O)C(N)=O)C(=O)Nc2cccn(CC(=O)N[C@@H]3C[C@H]4CC[C@@H]3C4)c2=O)oc2ccccc12 [II-147, (S)-N1-(1-(2-((1R,2R,4S)-bicyclo[2.2.1]heptan-2-ylamino)-2-oxoethyl)-2-oxo-1,2-dihydropyridin-3-yl)-2-(3-methylbenzofuran-2-carboxamido)-5-oxohexanediamide]
15 | 1 to 10 ×10⁻⁶ cm/s | < 1 | < 40 nM | NC(=O)C(=O)CC[C@H](NC(=O)c1cc2ccccc2o1)C(=O)Nc1cccn(CC(=O)N[C@@H]2C[C@@H]3CC[C@H]2C3)c1=O [II-148, (S)-2-(benzofuran-2-carboxamido)-N1-(1-(2-((1S,2R,4R)-bicyclo[2.2.1]heptan-2-ylamino)-2-oxoethyl)-2-oxo-1,2-dihydropyridin-3-yl)-5-oxohexanediamide]
16 | 1 to 10 ×10⁻⁶ cm/s | < 1 | < 40 nM | Cc1c(C(=O)N[C@@H](CCC(=O)C(N)=O)C(=O)Nc2cccn(CC(=O)N[C@@H]3C[C@@H]4CC[C@H]3C4)c2=O)oc2ccccc12 [II-149, (S)-N1-(1-(2-((1S,2R,4R)-bicyclo[2.2.1]heptan-2-ylamino)-2-oxoethyl)-2-oxo-1,2-dihydropyridin-3-yl)-2-(3-methylbenzofuran-2-carboxamido)-5-oxohexanediamide]
17 | 1 to 10 ×10⁻⁶ cm/s | 1 to 3 | 40 to 400 nM | CC1(C)[C@@H]2CC[C@@]1(C)[C@@H](NC(=O)Cn1cccc(NC(=O)[C@H](CCC(=O)C(N)=O)NC(=O)c3cc4ccccc4o3)c1=O)C2 [II-150, (S)-2-(benzofuran-2-carboxamido)-5-oxo-N1-(2-oxo-1-(2-oxo-2-((1R,2S,4R)-1,7,7-trimethylbicyclo[2.2.1]heptan-2-ylamino)ethyl)-1,2-dihydropyridin-3-yl)hexanediamide]
18 | 1 to 10 ×10⁻⁶ cm/s | 1 to 3 | 40 to 400 nM | Cc1c(C(=O)N[C@@H](CCC(=O)C(N)=O)C(=O)Nc2cccn(CC(=O)N[C@H]3C[C@H]4CC[C@]3(C)C4(C)C)c2=O)oc2ccccc12 [II-151, (S)-2-(3-methylbenzofuran-2-carboxamido)-5-oxo-N1-(2-oxo-1-(2-oxo-2-((1R,2S,4R)-1,7,7-trimethylbicyclo[2.2.1]heptan-2-ylamino)ethyl)-1,2-dihydropyridin-3-yl)hexanediamide]
19 | < 1 ×10⁻⁶ cm/s | < 1 | 40 to 400 nM | CNC(=O)C(=O)CC[C@H](NC(=O)c1snnc1C)C(=O)Nc1cccn(CC(=O)N[C@@H]2C[C@H]3CC[C@@H]2C3)c1=O [II-152, (S)-N1-(1-(2-((1R,2R,4S)-bicyclo[2.2.1]heptan-2-ylamino)-2-oxoethyl)-2-oxo-1,2-dihydropyridin-3-yl)-N6-methyl-2-(4-methyl-1,2,3-thiadiazole-5-carboxamido)-5-oxohexanediamide]

From US20240383856A1 (Zedira GmbH, priority 2021, published 2024)
